Experiments:
[1] = Aqueous stability of RSSH precursors in PBS; format: physicochemical
Method: We synthesized AST-2 as an esterase-sensitive RSSH donor via reaction of N-acetylpenicillamine methyl ester with methoxycarbonyl sulfenyl chloride in dichloromethane at 0 °C, affording the product in 72% yield (see Scheme S1). We first evaluated the aqueous stability of AST-2 in phosphate-buffered saline (PBS, pH 7.4) at 37 °C.
APT-1 was synthesized in 93% overall yield via a one-pot two-step sequence: N-acetylpenicillamine methyl ester was reacted with chlorocarbonylsulfenyl chloride to afford an S-perthiocarbonyl chloride intermediate, which was subsequently treated with 2-acetoxy-N-methylethan-1-aminium chloride in the presence of triethylamine (see Supporting Information).
We first evaluated the aqueous stability of the mitochondria-targeted analogs AST-2-TPP and APT-1-TPP. […] APT-1-TPP similarly retained excellent stability, with < 5% degradation over 41 h (Figure S1D).

[2] = Stability of RSSH precursors with glutathione by HPLC; format: physicochemical; conditions: GSH 500 µM (5 equiv), PBS pH 7.4, 37 °C; for half-life at 100 µM: PBS with glutathione (500 µM), pH 7.4, precursor 100 µM, read-out: decomposition half-life (t1/2) in the presence of GSH; for decomposition half-life (t1/2) in the presence of GSH / decomposition rate constant in the presence of GSH: precursor 100 µM; for decomposition rate constant in the presence of GSH: in min-1
Method: We next evaluated whether our newly developed precursors generate RSSH in the presence of thiols, which are abundant in biological systems. We examined their reactivity toward glutathione (GSH, 5 equiv) in PBS (pH 7.4, 37 °C), and precursor consumption was quantified by HPLC. […] We attribute this difference to their intrinsic reactivity. As shown previously,[23] AST donors can undergo nucleophilic attack either at the carbonyl carbon, producing the intended RSSH and a thiocarbonate byproduct (Scheme 3a, Path A), or at the disulfide bond, giving an unsymmetrical disulfide and a thiocarbonate intermediate (Scheme 3a, Path B). The higher electrophilicity of the perthiocarbonate carbonyl likely explains the faster consumption of AST derivatives. In contrast, and consistent with earlier studies,[24] APT-1 and APT-1-TPP react mainly through thiol–disulfide exchange (Scheme 3b, Path B), as attack at the perthiocarbamate carbonyl is disfavored due to its lower electrophilicity compared with the perthiocarbonate in AST donors. […]
(n = 3), and data are reported as mean ± standard deviation (SD).
Stability of RSSH Precursors with Glutathione by HPLC
Stock solutions of RSSH precursor (10 mM in DMSO) and GSH (20 mM in PBS, pH 7.4) were prepared immediately prior to the assay. The RSSH precursor (100 µM) was incubated with GSH (500 µM) in phosphate-buffered saline (PBS, pH 7.4) at 37 °C. At designated time points, 200 μL aliquots were withdrawn and immediately quenched by mixing with an equal volume of ice-cold 0.1% formic acid. Samples were analyzed by Agilent HPLC with UV detection using a C18 reverse-phase column (Phenomenex Luna C18, 4.6 × 150 mm, 5 μm) at 25 °C with a flow rate of 1.0 mL/min and an injection volume of 20 μL. The gradient elution (all solvents v/v, containing 0.1% trifluoroacetic acid) was as follows: 0–10 min, linear gradient from 90% water / 10% acetonitrile to 50% water / 50% acetonitrile; 10–18 min, to 10% water / 90% acetonitrile; 18–20 min, held at 10% water / 90% acetonitrile; 20–25 min, return to 90% water / 10% acetonitrile.
Absorbance was monitored at 275 nm. The percentage of precursor remaining at each time point was calculated by comparing the absorbance at 275 nm to the initial value. All experiments were performed in triplicate (n = 3), and data are reported as mean ± standard deviation (SD).
Figure S19. Stability profiles of (A) AST-2, (B) APT-1, (C) AST-2-TPP, and (D) APT-1-TPP in PBS, pH 7.4 at 37 °C in the presence of GSH. Decomposition rate constant for AST-2, APT-1, AST-2-TPP, and APT-1- […]
Decomposition half-lives for AST-2, APT-1, AST-2-TPP, and APT-1-TPP are 8.6 ± 0.1 min, 39.7 ± 1.2 min, 6.3 ± 0.1 min, and 56.2 ± 4.0 min, respectively. Data are mean ± standard deviation (SD) (n = 3)
(1 picture or pasted object on this page, not shown here)

H9c2 cells = assay: Cytoprotection against DOX-induced toxicity, CCK-8 assay; format: cell-based; conditions: 4 h pretreatment, then 24 h co-treatment with DOX 5 μM
Method: We evaluated the cytoprotective effects of RSSH precursors against DOX-induced cardiotoxicity in H9c2 cardiomyoblasts. First, we assessed the cytotoxicity of the RSSH donors (AST-2, APT-1, AST-2-TPP, and APT-1-TPP) using the CCK-8 assay.[24] […] To evaluate cytoprotection, H9c2 cells were pretreated with RSSH donors for 4 h, followed by 24 h co-treatment with DOX (5 μM). As expected, DOX alone reduced cell viability to ca. 50% (Figure 4a). […] Although both compounds were protective, no enhancement of potency was observed upon TPP conjugation. […] A distinctive feature of our study is the direct comparison between mitochondria-targeted and non-targeted RSSH donors. […] TPP conjugation only modestly enhances the cytoprotective effects of RSSH donors under our experimental conditions. This outcome may reflect the intrinsic high efficacy of non-targeted RSSH donors, thereby limiting the additional benefit of mitochondrial targeting.
Figure 4. Protective effects of RSSH donors against DOX-induced cytotoxicity in H9c2 cells. Cells were pretreated with RSSH donors for 4 h, followed by exposure to DOX (5 μM) for an additional 24 h. Cell viability was assessed using the cell counting Kit-8 (CCK-8) assay. Results are expressed as mean ± SEM, n = 3; *P < 0.05, **P < 0.01, ***P < 0.001, ****P < 0.0001. Ctl = vehicle-treated group (0.01% DMSO in medium). […]
Cytoprotective Effects of RSSH Donors against Doxorubicin Toxicity
Cytoprotective studies were performed as previously described.[8] Briefly, H9c2 cells, HepG2 cells, MDA-MB-468 cells, and MCF-7 cells were seeded at a density of 7 x 10^3 cells/well. […] Additionally, in the vehicle control group, cells were treated with medium (DMEM with 10% FBS) containing 0.01% DMSO only. The cells were then further incubated for an additional 4 h before being treated with DOX (10 μL/well, with final concentration of 5 μM). After a 24 h co-incubation with DOX, each well was carefully washed three times with PBS (pH 7.4) and 100 μL o f F B S-free medium containing 10% v/v CCK-8 (Dojindo) was added. The plates were then incubated for 1-2 h before measuring absorbance at […]
The relative % cell viability was calculated as 100 times the ratio of Abs450 (RSSH donor + DOX-exposed) to Abs450 (vehicle, non-DOX-exposed). Each treatment condition was performed in 6 technical replicates per biological replicate, and the experiment was independently repeated three times (n = 3 biological replicates). Data are presented as mean ± SEM. […]

SMILES | degradation (aqueous stability) ([1]; PBS pH 7.4, 37 °C, over 41 h) [%] | half-life at 100 µM [2] [min] | decomposition half-life (t1/2) in the presence of GSH [2] [min] | decomposition rate constant in the presence of GSH [2] | protection against DOX-induced cytotoxicity (H9c2 cells) | decomposition (aqueous stability) ([1]; PBS, 37 °C, over 48 h) [%] | decomposition (aqueous stability) ([1]; PBS pH 7.4, 37 °C, over 7 h) | concentration of maximal protection (H9c2 cells) [µM] | concentration with significant protective effects (H9c2 cells) [µM] | decomposition (aqueous stability) ([1]; PBS pH 7.4, 37 °C, over 9 h) [%]
CC(=O)NC(C(=O)N(C)CCC[P+](c1ccccc1)(c1ccccc1)c1ccccc1)C(C)(C)SSC(=O)N(C)CCOC(C)=O (stereo not drawn) [APT-1-TPP] | < 5 | 56.2 ± 4 | 56 | 0.01236 ± 0.00066 | dose-dependent cytoprotective effect |  |  |  |  | 
COC(=O)C(NC(C)=O)C(C)(C)SSC(=O)N(C)CCOC(C)=O (stereo not drawn) [APT-1] |  | 39.7 ± 1.2 | 40 | 0.01749 ± 0.00052 | dose-dependent cytoprotective effect | 7 |  |  |  | 
COC(=O)SSC(C)(C)C(NC(C)=O)C(=O)N(C)CCC[P+](c1ccccc1)(c1ccccc1)c1ccccc1 (stereo not drawn) [AST-2-TPP] |  | 6.3 ± 0.1 | 6 | 0.1094 ± 0.00183 | dose-dependent protection |  | ca. 20% | 25 | ≥ 1 | 
COC(=O)SSC(C)(C)C(NC(C)=O)C(=O)OC (stereo not drawn) [AST-2] |  | 8.6 ± 0.1 | 9 | 0.08081 ± 0.00105 | dose-dependent protection |  |  | 25 | ≥ 1 | 22

From publication PMC13224100, “Esterase-Responsive Mitochondria-Targeted Hydropersulfide Donors Mitigate Doxorubicin Cardiotoxicity While Preserving Anticancer Activity” (Angewandte Chemie (International ed. in English), 2025)
